# According to US4749710A, “Immunosuppressive agents” (priority 1985, dated 1988):
# Where two headings read alike, the source gives them in different places.
# How the values were obtained:
# Assay type in all cases: cell-based
# [1] = tested on: IgM production by human lymphocytes; assay: Inhibition of IgM production by human lymphocytes in vitro (SAC activation, ELISA); settings: 8 days, vehicle control 2.49 ± 0.17
# Source text: (§1) General Test Description Humoral immunity comprises one of the two major arms of the immune system and generally is beneficial. However, a number of disease states are characterized by a hyperactive immune system responding to self tissue antigens. […] In these diseases it would be important to suppress the humoral immune system.
# (§2) In the following studies we used established methods to examine the effect of Vitamin D derivatives on the in vitro production of immunoglobulin (Ig) by human peripheral blood leukocytes (PBL) following polyclonal activation. Immunoglobulin was induced from PBL by co-culturing the PBL with the polyclonal B cell activator Staphylococcus aureus strain Cowan I (SAC) for a period of 8 days. The quantity of Ig produced in the culture supernatants was determined by using an enzyme linked immunosorbent assay (ELISA). The effect of Vitamin D derivatives was determined by comparing the amount of antibody produced in cultures containing Vitamin D derivatives to those cultures containing an appropriate concentration of vehicle (ethanol).
# (§3) Solutions of vitamin D derivatives. Stock solutions of vitamin D derivatives were prepared as described previously for the murine CTL experiments.
# (§4) INDUCTION OF HUMAN IG SECRETION Human peripheral blood mononuclear leukocytes were prepared from one day old buffy coat preparations obtained from the American Red Cross (Lansing, MI). […] Twenty five ml of this preparation were overlayed onto 25 ml of Ficoll-Paque contained in a 50 ml polypropylene centrifuge tube. After centrifugation at 400×g at 15° C. for 40 min, the cells at the interface of the medium and Ficoll were removed and washed 3 times in 50 ml RPMI medium and centrifuged at 300×g for 10 minutes. After the final centrifugation,the cell pellet was suspended in RPMI medium containing 20% fetal bovine serum (FBS) and 80 μg/ml gentamicin. The number of viable cells was determined by trypan blue exclusion and were then suspended to 2.5×10^6 viable cells per ml in RPMI containing 20% FBS and gentamicin. Human PBL were induced to secrete Ig as follows. One hundred microliters of the PBL suspension and an additional 100 μl of a 1:20,000 (v/v) preparation of SAC suspended in RPMI containing 1% FBS were added to each well of a 96-well microtiter plate. Selected wells were also set up without the addition of SAC to serve as negative controls (spontaneous Ig secretion). Each well then received 20 μl of either the appropriate dilution of Vitamin D derivative in RPMI with 1% ethanol or RPMI with 1% ethanol (vehicle control). The vitamin D derivatives were tested at final concentrations of 10^-5, 10^-6, 10^-7, 10^-8, 10^-9, and 10^-10 M and in all cases the vehicle (ethanol) concentration was 0.1%. All treatments were performed in triplicate. […] The samples were then either assayed immediately or stored at -20° C. until assayed by the ELISA technique described below.
# (§5) QUANTITATION OF SECRETED IG (ELISA ASSAY) ELISA plates were prepared for quantitating human IgG and IgM levels in culture supernatants as follows. Affinity purified sheep anti-human IgG and goat anti-human IgM (Cappel, Cochranville, PA) were diluted 1:250 and 1:400 respectively, in carbonate coating buffer (0.05M sodium bicarbonate, 0.05M sodium carbonate, 0.15M sodium chloride). One hundred and fifty microliters of the antibody preparation were added to each well of a 96 well ELISA plate (EIA, Costar). The plates were sealed and incubated overnight at 4° C. and on the following day were washed 3 times with distilled water. Each well then received 350 μl of Dulbecco's PBS containing 1 mg/ml bovine serum albumin (BSA) and 0.5 mg/ml sodium azide. The plates were allowed to incubate for 1 hour at 37° C. and then washed 3 times with Dulbecco's PBS containing 0.5% stock Tween 20 (PBS-Tween) followed by 2 washes with distilled water. The plates were air dried and stored desiccated under a vacuum at 4° C. until use.
# [2] = tested on: IgG production by human lymphocytes; assay: Inhibition of IgG production by human lymphocytes in vitro (SAC activation, ELISA); settings: 8 days, vehicle control 0.78 ± 0.09
# Source text: as §1, §2, §3, §4, §5
# [3] = tested on: human cytotoxic T-lymphocyte responses; assay: Inhibition of human CTL responses (mixed leukocyte-tumor cultures, HT-144 melanoma, ^51 Cr release); settings: donor I, 0.01% ethanol, effector to target 6:1
# Procedure: Human cells for the tests described below were taken from four donors designated I, II, III, and IV in the tables below.
# Stock solutions of Vitamin D derivatives were prepared as they were prepared above in the murine tests.
# Human cytotoxic T-lymphocytes were generated in mixed leukocyte-tumor cultures by known methods. Specifically, blood from normal volunteer donors was drawn into heparinized syringes, diluted 1:1 with calcium-magnesium free Hanks' balanced salt solution (Ca-Mg free HBSS), and layered over lymphocyte separation medium (Litton Bionetics, Kensington, MD). After centrifugation at 500xg for 20-30 min at room temperature, peripheral blood mononuclear cells were harvested from the interface. The peripheral blood mononuclear leukocytes were centrifuged and resuspended in Ca-Mg free HBSS and were subsequently separated from platelets by centrifugation at 500xg through a solution of 20% sucrose and 1% human AB serum in Ca-Mg free HBSS. The cells were washed once and finally resuspended in tissue culture medium. […] Cells to be used as stimulator cells in mixed leukocyte-tumor cultures were irradiated with 10,000 rads of gamma irradiation to preclude proliferation in culture. Mixed leukocyte-tumor cell cultures were established in 16 mm tissue culture wells at a final volume of 1.5 ml per well containing 2×10^6 peripheral blood mononuclear leukocytes and 5×10^4 irradiation-inactivated stimulator cells. In order to prevent the generation of nonspecific cytotoxic cells in these cultures, hydrocortisone sodium succinate was added to each culture at a final concentration of 1×10^-5 M. Mixed leukocyte-tumor cultures were incubated for 6 days in a humidified atmosphere of 5% CO2 in air.
# Labelled target cells were washed free of unbound isotope by 3 serial washes in tissue culture medium and were finally resuspended at a concentration of 5×10^4 cells per ml.
# Assays of human cytotoxic T-lymphocytes were done by known methods. Specifically, one-tenth ml aliquots of ^51 Cr-labelled target cell suspension were added to "half area" microtest plates and were incubated at 37° C. for 18 hours in a humidified atmosphere of 5% CO2 in air to permit the cells to adhere and spread on the floor of each well. Culture medium was then aspirated from each well and was replaced with 0.1 ml of tissue culture medium containing cells harvested from mixed leukocyte-tumor cultures which had been processed as described for murine mixed leukocute cultures, above. Control wells for measurement of spontaneous ^51 Cr release received medium without effector cells and wells for measurement of maximal releasable ^51 Cr received 0.1 ml of 2% sodium dodecyl sulfate in distilled water. After overnight incubation at 37° in a humidified atmosphere of 5% CO2 in air, 0.05 ml of cell-free supernatant was withdrawn from each well and the amount of released ^51 Cr was quantitated using a gamma spectrometer. The percentage of specific ^51 Cr release (CTL activity) and the percent inhibition of CTL activity were calculated with the same formulas used above for the murine CTL assay.
# Tests conducted on human cytotoxic T-lymphocyte responses are reported as the mean±standard error of the mean from triplicate ^51 Cr release determinations on pooled cells from duplicate control or test cultures.
compound,measurement,setting,value
"C=C1/C(=C\C=C2/CCC[C@]3(C)[C@@H]([C@H](C)CC[C@@H](F)C(C)(C)O)CC[C@@H]23)C[C@@H](O)C[C@@H]1O [24R-F--1α,25-(OH)2 --D3, 1α,25-Dihydroxy-24R-fluorocholecalciferol]",IgM μg per culture (x ± S.E.M.),[1]; 1 × 10^-6 molar,undetectable
same,IgM μg per culture (x ± S.E.M.),[1]; 1 × 10^-7 molar,0.12 ± 0.06 μg per culture
same,IgM μg per culture (x ± S.E.M.),[1]; 1 × 10^-8 molar,1.23 ± 0.03 μg per culture
same,IgM μg per culture (x ± S.E.M.),[1]; 1 × 10^-9 molar,3.13 ± 0.41 μg per culture
same,IgM μg per culture (x ± S.E.M.),[1]; 1 × 10^-10 molar,3.84 ± 0.72 μg per culture
same,IgG μg per culture (x ± S.E.M.),[2]; 1 × 10^-6 molar,undetectable
same,IgG μg per culture (x ± S.E.M.),[2]; 1 × 10^-7 molar,0.01 ± 0.002 μg per culture
same,IgG μg per culture (x ± S.E.M.),[2]; 1 × 10^-8 molar,0.10 ± 0.02 μg per culture
same,IgG μg per culture (x ± S.E.M.),[2]; 1 × 10^-9 molar,0.22 ± 0.05 μg per culture
same,IgG μg per culture (x ± S.E.M.),[2]; 1 × 10^-10 molar,0.21 ± 0.06 μg per culture
same,inhibition at 1 µM,"[3]; Homo sapiens, T-lymphocyte, Test 1, 1 × 10^-6 molar, read-out: Inhibition of CTL activity (%)",87%
same,inhibition at 0.1 µM,"[3]; Homo sapiens, T-lymphocyte, Test 1, 1 × 10^-7 molar, read-out: Inhibition of CTL activity (%)",62%
same,inhibition at 10 µM,"[3]; Homo sapiens, T-lymphocyte, Test 2, 1 × 10^-5 molar, read-out: Inhibition of CTL activity (%)",94%
same,inhibition at 1 µM,"[3]; Homo sapiens, T-lymphocyte, Test 2, 1 × 10^-6 molar, read-out: Inhibition of CTL activity (%)",100%
same,CTL activity (% specific ^51 Cr release),"[3]; Test 1, 1 × 10^-6 molar",7 ± 6 % specific ^51 Cr release
same,CTL activity (% specific ^51 Cr release),"[3]; Test 1, 1 × 10^-7 molar",20 ± 1 % specific ^51 Cr release
same,CTL activity (% specific ^51 Cr release),"[3]; Test 2, 1 × 10^-5 molar",3 ± 4 % specific ^51 Cr release
same,CTL activity (% specific ^51 Cr release),"[3]; Test 2, 1 × 10^-6 molar",0 ± 3 % specific ^51 Cr release
